The subject of data set [1] is Hepatitis C virus. Put plainly: Antiviral activity against HCV in human HuH7 cells by replicon assay. It counts as functional, organism-based, Hepacivirus hominis. Particulars: Huh-7. Background: In antiviral work, replicon cells carry a viral genome segment that copies itself.
Data set [2] is described as follows: Cytotoxicity against human HuH7 cells. Type of data set: cell-based, Huh-7.
The nature of data set [3]: Oral bioavailability in dog at 2.7 mg/kg. As to conditions: in vivo. Type of data set: ADME, organism-based, Canis lupus familiaris.
The nature of data set [4]: Apparent permeability from apical to basolateral side in human Caco-2 cells. It counts as ADME, cell-based. Background: Passage across Caco-2 layers is used to estimate intestinal permeability.
Data set [5] in a line: Inhibition of HCV NS3 protease. Also on record: species or system Hepacivirus hominis.
Data set [6] in a line: Apparent systemic clearance in dog at 1.1 mg/kg, iv relative to liver blood flow. Type of data set: ADME, organism-based, Canis lupus familiaris. As to conditions: in vivo. Also on record: dose 1.1 mg/kg, route intravenous.

A value given as a limit tells only on which side of the number the result lay.

The values that follow come from ChEMBL document CHEMBL1136999, “Discovery of novel phosphonate derivatives as hepatitis C virus NS3 protease inhibitors” (Bioorg Med Chem Lett, 2009).

`C=CC1C[C@]1(NC(=O)[C@@H]1C[C@@H](Oc2cc(-c3csc(NC(C)C)n3)nc3cc(OC)ccc23)CN1C(=O)[C@@H](NC(=O)OC1CCCC1)C(C)(C)C)P(=O)(O)O` (stereo partly specified): the half-maximal effective concentration (EC50) in data set [1] worked out at 92 nM. The CC50 in data set [2] was > 50000 nM. The bioavailability in data set [3] was 1%. The Papp A→B in data set [4] is 0.2 ×10⁻⁶ cm/s. Further, the IC50 in data set [5] turned out to be 0.9 nM.
`C=CC1C[C@]1(NC(=O)[C@@H]1C[C@@H](Oc2cc(-c3csc(NC(C)C)n3)nc3cc(OC)ccc23)CN1C(=O)[C@@H](NC(=O)OC1CCCC1)C(C)(C)C)C(=O)O` (stereo partly specified) showed an EC50 in data set [1] of 6 nM. In data set [2], the CC50 was > 50000 nM. The compound further came in with an IC50 in data set [5] of 3 nM.
As for `C=CC1C[C@]1(NC(=O)[C@@H]1C[C@@H](Oc2cc(-c3csc(NC(C)C)n3)nc3cc(OC)ccc23)CN1C(=O)[C@@H](NC(=O)OC1CCCC1)C(C)(C)C)P(=O)(OCOC(=O)OCC)OCOC(=O)OCC` (stereo partly specified), a half-maximal response in data set [1] (EC50) required 39 nM. The clearance in data set [6] is 28.3 mL/min/kg. In addition, the midpoint of inhibition in data set [5], the IC50, lay at 280 nM.
`C=CC1C[C@]1(NC(=O)[C@@H]1C[C@@H](Oc2cc(-c3csc(NC(C)C)n3)nc3cc(OC)ccc23)CN1C(=O)[C@@H](NC(=O)OC1CCCC1)C(C)(C)C)P(=O)(O)OCC` (stereo partly specified) registered an EC50 in data set [1] of 360 nM. In data set [2], the CC50 was > 50000 nM. The compound further displayed an IC50 in data set [5] of 7 nM.
`C=CC1C[C@]1(NC(=O)[C@@H]1C[C@@H](Oc2cc(-c3csc(NC(C)C)n3)nc3cc(OC)ccc23)CN1C(=O)[C@@H](NC(=O)OC1CCCC1)C(C)(C)C)P(=O)(OCOC(=O)OCC1CC1)OCOC(=O)OCC1CC1` (stereo partly specified) gave an EC50 in data set [1] of 41 nM. This compound had an IC50 in data set [5] of 85 nM.

In general, EC50 refers to the concentration giving half of the maximal effect. Low readings indicate an effect from little substance, high ones a need for much substance. For orientation: CC50 means the concentration at which the toxic effect on the cells reaches its halfway point. A lower CC50 goes with harm at low concentration. A word on the bioavailability: it is dose-corrected exposure relative to a reference, in per cent. A low value points to little systemic uptake. As usually defined, the Papp A→B is the apparent permeability from the apical to the basolateral side of a cell layer. The term IC50 denotes the concentration needed to halve the response being measured. Lower therefore signals higher potency.
